Converted amounts (≈) assume the structure as drawn. Where a SMILES comes first, the peptide text is derived from it.

These results are taken from PMC12156185, “Synthesis of Cyclic Hexapeptides via the Hydrazide Method and Evaluation of Their Antibacterial Activities” (Molecules, 2025).

What all share (type): cell-based
One series has as its system Candida tropicalis. Put plainly: Scanning electron microscopy of treated cells. To be noted: 4 MIC (32 μM for Cy-f2, 128 μM for Cy-f4), 1 h, 30 °C, 5000× magnification; clotrimazole as positive control. As to the method: (§1) To investigate the morphological effects of the cyclic peptides Cy-f2 and Cy-f4 on Klebsiella pneumoniae and Candida tropicalis, scanning electron microscopy (SEM) was performed (Figure 7). […] Untreated cells served as controls. Samples were fixed, dehydrated, and coated with gold for SEM imaging at 5000× magnification. Effects on Klebsiella pneumoniae (Panel A). […] The bactericidal efficacy of Cy-f2 and Cy-f4 against Klebsiella pneumoniae was verified through comparative evaluation of the treatment group and the positive control group. Effects on Candida tropicalis (Panel B) untreated C. tropicalis cells in the control group appeared as smooth, spherical to oval-shaped yeast cells with intact cell walls.
(§2) According to the method of He with adjustments, bacteria were grown to the logarithmic phase and then washed and resuspended in sterile PBS to an OD600 of 0.4. They were incubated with an equal volume of AMPs at 4× MIC for 1 h. After incubation, the bacterial pellets were washed three times with PBS and centrifuged at 3500 rpm for 4 min. The pellets were then fixed overnight in 2.5% (w/v) glutaraldehyde. The bacterial samples were dehydrated using a series of ethanol solutions with increasing concentrations (30%, 50%, 70%, 90%, and 100%). After dehydration, the samples were dried and sputter-coated with gold. Bacterial fragmentation was observed using scanning electron microscopy (HITACHI SU5000, Tokyo, Japan). Untreated bacterial suspensions served as the negative control.

The test system of series [1] is Acinetobacter baumannii (BNCC 337173). As for the experimental part:
(§3) The antimicrobial and antifungal activities of 11 cyclic hexapeptides (Cy-f1 to Cy-f11) were evaluated by determining their minimum inhibitory concentrations (MICs) against a panel of pathogens (Figure 4). These pathogens included Gram-negative bacteria (Escherichia coli, Klebsiella pneumoniae, Pseudomonas aeruginosa), Gram-positive bacteria (Staphylococcus aureus, Bacillus subtilis, Staphylococcus aureus [MRSA], […]), and fungi (Candida tropicalis, Cryptococcus neoformans).
(§4) The antibacterial activity of peptide analogs was tested against different bacterial strains, all purified cyclotides underwent antibacterial testing against Gram-positive bacterium Staphylococcus aureus (BNCC 186335), Bacillus subtilis (BNCC 109047), and Staphylococcus aureus (MRSA, BNCC 330041), Gram-negative bacteria, including Acinetobacter baumannii (BNCC 337173), Pseudomonas aeruginosa (BNCC 125486), and […]. Fungi included Candida parapsilosis (BNCC 336515) and Candida tropicalis (BNCC 340288). All the above strains are from the Henan Provincial Engineering Research Center of Industrial Microorganisms (Henan, China). Escherichia coli (ATCC 25922) and Klebsiella pneumoniae (CMCC(B) 46117) were sourced from Guangzhou HuanKai Microbial Technology Co., Ltd. (Guangzhou, China). The peptides’ MIC was determined using the Clinical and Laboratory Standards Institute broth dilution procedure with slight modifications.
(§5) Colonies of these bacterial strains were grown in respective agar media, then inoculated in Mueller Hinton (MH) broth and incubated at 37 °C overnight. The peptide solutions were first diluted 1 in 100 (from the stock solution at 20 mM) and then further two-fold dilution in MH broth in a sterile 96-well plate was performed, resulting in 100 µL of broth containing increasing concentrations. Bacteria in their exponential growth phase were diluted in MH broth, and 100 µL of this suspension was added in each well. […] Then, these plates were incubated at 37 °C for 20–22 h.
(§6) Each test was performed at least three times. MIC (minimum inhibitory concentration) values were determined as the concentrations of peptides that caused >99% inhibition of bacterial growth.

For series [2], the system named is Klebsiella pneumoniae (CMCC(B) 46117). As to the method:
as §3, §4, §5, §6

Series [3] deals with Bacillus subtilis (BNCC 109047). As for the experimental part:
as §3, §4, §5, §6

In series [4] the test system is Escherichia coli (ATCC 25922). As to the method:
as §3, §4, §5, §6

Series [5] has as its system Pseudomonas aeruginosa (BNCC 125486). As for the experimental part:
as §3, §4, §5, §6

The test system of series [6] is Staphylococcus aureus (BNCC 186335). As to the method: as §3, §4, §5, §6
In series [7] the test system is Staphylococcus aureus (MRSA, BNCC 330041). As for the experimental part:
as §3, §4, §5, §6

In series [8] the test system is Candida tropicalis (BNCC 340288). To be noted: BNCC 340288, 24 h. As to the method:
as §3, §4
Candida tropicalis was cultured on Sabourad Dextrose Agar (SDA). A single colony was inoculated in YM broth medium and grown overnight at 37 °C while shaking. Peptides were diluted in SDB media by two-fold dilution, resulting in 100 µL of medium containing increasing concentrations. The overnight culture (turbidity at OD600 = 1) was 1000× diluted in SDB. Then 100 µL of this suspension was added to each well, resulting in a final 200 µL suspension containing 2–4 × 10^5 CFU/mL. The plate was incubated at 37 °C for 24 h.
as §6

A further series deals with red blood cells (RBCs). As for the experimental part: Based on the antimicrobial activity screening, a hemolysis assay was conducted to assess the toxicity of Cy-f1, Cy-f2, and Cy-f4 (Figure 5). For Cy-f1, the hemolysis percentage remained consistently low across all tested concentrations. At 8 μM, Cy-f1 induced approximately 0.12% hemolysis. […] For Cy-f2, the hemolysis percentage also remained consistently low across all tested concentrations. At 8 μM, Cy-f2 induced approximately 0.3% hemolysis, and Cy-f2 stayed stable at 0.3% at 16 μM and 32 μM. […] At 8 μM, it induced approximately 0.7% hemolysis, […]. However, hemolysis increased slightly with higher concentrations, reaching approximately […] and 1.1% at 16 μM and 32 μM, respectively. […] In this experiment Triton X-100 was used as a positive control with a hemolysis rate of 100%.
Figure S4. SEM images of RBCs treated with Cy-f1, Cy-f2, and Cy-f4. (A) SEM images of RBCs
treated with Cy-f1. (B) SEM images of RBCs treated with Cy-f2. (C) SEM images of RBCs treated […]

The test system of series [9] is Cryptococcus neoformans (BNCC 225501). Particulars: BNCC 225501, 48 h. As to the method:
as §3, §4, §6

In series [10] the test system is Klebsiella pneumoniae. Put plainly: Scanning electron microscopy of treated cells. To be noted: 4 MIC (64 μM for Cy-f2, 128 μM for Cy-f4), 1 h, 37 °C, 5000× magnification; cefoperazone sodium as positive control. As for the experimental part: as §1, §2
In series [11] the test system is Klebsiella pneumoniae. Put plainly: Time-dependent growth kinetics (time-kill). Particulars: 37 °C. As to the method: Bacterial viability, expressed as logarithmic colony-forming units per milliliter (Lg CFU/mL), was monitored over 240 min at 37 °C. Results are presented in Figure 6, X as the mean Lg CFU/mL ± standard deviation (SD) from three independent experiments. […] At 2× MIC, a more pronounced effect was observed, with the Lg CFU/mL decreasing to 4.0, a 3.9 Lg CFU/mL reduction. […] This rapid killing profile supports Cy-f2’s potential as an effective antimicrobial peptide.
Klebsiella pneumoniae was cultured in fresh LB nutrient broth at 37 °C following the protocol described by Huang et al., with modifications. Upon reaching the logarithmic growth phase, the bacterial suspension was adjusted to approximately 10^6 CFU/mL and subsequently treated with cyclized f2 at concentrations corresponding to 1×, 2×, and 4× the minimum inhibitory concentration (MIC). Aliquots were collected at 1, 2, 3, and 4 h post-treatment, serially diluted, and plated onto solid agar medium for 24 h incubation. Colony-forming units (CFUs) were enumerated to assess bacterial viability. All experiments were performed in triplicate. Time-dependent growth kinetics were analyzed by plotting bacterial survival (log10 CFU/mL) against time (h) using GraphPad Prism9.5, enabling statistical evaluation of the bactericidal and bacteriostatic effects of the cyclic hexapeptide.

As to `Clc1ccccc1C(c1ccccc1)(c1ccccc1)n1ccnc1` [clotrimazole, reference compound], in the series on Candida tropicalis, the “Cell morphology of C. tropicalis by SEM” value is “fragmentation and shrinkage”.
In the case of `CC[C@H](C)[C@@H]1NC(=O)[C@H](CCCCN)NC(=O)[C@H](CC(C)C)NC(=O)[C@H](CC(C)C)NC(=O)[C@H](CS)NC(=O)[C@H](Cc2ccccc2)NC1=O` [Cy-f1] (cyclo(CLLKIF)), in series [1], the “MIC against A. baumannii” value amounted to 32 µM (≈ 23 µg/mL). Besides, the “MIC against K. pneumoniae” value in series [2] turned out to be 64 µM (≈ 46 µg/mL). In addition, in series [3], the “MIC against B. subtilis” value came to 4 µM (≈ 2.87 µg/mL). Moreover, in series [4], the “MIC against E. coli” value was found to be 64 µM (≈ 46 µg/mL). Besides, the “MIC against P. aeruginosa” value in series [5] turned out to be 128 µM (≈ 91.9 µg/mL). In addition, in series [6], the “MIC against S. aureus” value was determined as 8 µM (≈ 5.74 µg/mL). In series [7], the “MIC against MRSA” value worked out at 16 µM (≈ 11.5 µg/mL). For the same molecule, the “MIC against C. tropicalis” value in [8] was found to be 64 µM (≈ 46 µg/mL). In the series on red blood cells (RBCs), the “Morphology of red blood cells by SEM” value was “maintained well-preserved cell morphology”. In addition, the “MIC against C. neoformans” value in [9] came out at 16 µM (≈ 11.5 µg/mL).
Take `CCN1CCN(C(=O)N[C@@H](C(=O)N[C@@H]2C(=O)N3C(C(=O)O)=C(CSc4nnnn4C)CS[C@H]23)c2ccc(O)cc2)C(=O)C1=O` [cefoperazone sodium, reference compound]: the “Cell morphology of K. pneumoniae by SEM” value in the series with Klebsiella pneumoniae [10] is “surface roughening, cell shrinkage, and partial membrane disruption”.
For the molecule `CC(C)C[C@@H]1NC(=O)[C@H](CCCCN)NC(=O)[C@H](CS)NC(=O)[C@H](Cc2ccccc2)NC(=O)[C@H](Cc2c[nH]c3ccccc23)NC(=O)[C@H](CCCNC(=N)N)NC1=O` [Cy-f4] (cyclo(CKLRWF)), in [1], the “MIC against A. baumannii” value is 64 µM (≈ 53.4 µg/mL). For the same molecule, the “MIC against K. pneumoniae” value in [2] was found to be 32 µM (≈ 26.7 µg/mL). Besides, the “MIC against P. aeruginosa” value in series [5] came to 128 µM (≈ 107 µg/mL). For the same molecule, in series [6], the “MIC against S. aureus” value amounted to 16 µM (≈ 13.3 µg/mL). Also, the “MIC against MRSA” value in series [7] is 32 µM (≈ 26.7 µg/mL). Further, the “MIC against C. tropicalis” value in series [8] is 64 µM (≈ 53.4 µg/mL). Further, in the series on Candida tropicalis, the “Cell morphology of C. tropicalis by SEM” value was “mild surface roughening and slight deformation but retaining overall structural integrity”. Further, the “Cell morphology of K. pneumoniae by SEM” value in the series with Klebsiella pneumoniae [10] is “extensive membrane rupture, cell deformation, and leakage of intracellular contents”. In addition, in the series on red blood cells (RBCs), the “Morphology of red blood cells by SEM” value is recorded as “maintained well-preserved cell morphology”. The “MIC against C. neoformans” value in series [9] came out at 32 µM (≈ 26.7 µg/mL).
As to `CC[C@H](C)[C@@H]1NC(=O)[C@H](CCCCN)NC(=O)[C@H](CC(C)C)NC(=O)[C@H](CCCNC(=N)N)NC(=O)[C@H](CS)NC(=O)[C@H](Cc2ccccc2)NC1=O` [Cy-f2] (cyclo(CRLKIF)), in [2], the “MIC against K. pneumoniae” value is 16 µM (≈ 12.2 µg/mL). In addition, in series [3], the “MIC against B. subtilis” value was 32 µM (≈ 24.4 µg/mL). For the same molecule, in series [4], the “MIC against E. coli” value stood at 16 µM (≈ 12.2 µg/mL). For the same molecule, the “MIC against P. aeruginosa” value in [5] came to 16 µM (≈ 12.2 µg/mL). Further, the “MIC against S. aureus” value in [6] was found to be 8 µM (≈ 6.09 µg/mL). Further, the “MIC against MRSA” value in series [7] was 32 µM (≈ 24.4 µg/mL). The “MIC against C. tropicalis” value in [8] amounted to 16 µM (≈ 12.2 µg/mL). In addition, the “Cell morphology of C. tropicalis by SEM” value in the series with Candida tropicalis is “surface irregularities, cell wall deformation, and some degree of cell collapse”. The “Cell morphology of K. pneumoniae by SEM” value in the series on Klebsiella pneumoniae [10] was “surface roughening, cell shrinkage, and partial membrane disruption”. Also, the “Morphology of red blood cells by SEM” value in the series on red blood cells (RBCs) is “maintained well-preserved cell morphology”. For the same molecule, the “MIC against C. neoformans” value in [9] was 8 µM (≈ 6.09 µg/mL). In addition, the results for the “Reduction of bacterial viability after 240 min” value in the series with Klebsiella pneumoniae [11] (1× MIC (16 μM)) and in the series on Klebsiella pneumoniae [11] (2× MIC (32 μM)) were 2.4 Lg CFU/mL and 3.9 Lg CFU/mL, respectively. Further, the “Bacterial viability after 240 min” value in the series on Klebsiella pneumoniae [11] (1× MIC (16 μM), start 6.55 Lg CFU/mL, mean of three independent experiments) was 5.60 Lg CFU/mL; with Klebsiella pneumoniae [11] (2× MIC (32 μM), mean of three independent experiments), 4.0 Lg CFU/mL. Besides, the “Bacterial viability within 240 min” value in the series with Klebsiella pneumoniae [11] (4× MIC (64 μM), mean of three independent experiments) is “below 1.0 Lg CFU/mL”.
Regarding `CC[C@H](C)[C@@H]1NC(=O)[C@@H]2CCCN2C(=O)[C@H](CCCCN)NC(=O)[C@H](CCCNC(=N)N)NC(=O)[C@H](CS)NC(=O)[C@H](C(C)C)NC1=O` [Cy-f6] (cyclo(CRKPIV)), the “MIC against A. baumannii” value in [1] was > 200 µM. For the same molecule, the “MIC against K. pneumoniae” value in [2] was > 200 µM. Moreover, the “MIC against B. subtilis” value in [3] is > 200 µM. The “MIC against E. coli” value in series [4] was > 200 µM. The “MIC against P. aeruginosa” value in series [5] was > 200 µM. Moreover, the “MIC against S. aureus” value in series [6] was > 200 µM. Also, the “MIC against MRSA” value in series [7] is > 200 µM. Besides, in series [8], the “MIC against C. tropicalis” value was > 200 µM. Besides, in series [9], the “MIC against C. neoformans” value was > 200 µM.
